Publication PMC9961069 (Metabolites, 2023)

What was measured:
[1] = tested on: T1, DHFR in MDA-MB-468 lysates; test: Lysate cellular thermal shift assay (CETSA) for DHFR; type: binding, Human; conditions: 10 μM, MDA-MB-468 lysate, 45 °C for 3 min, DMSO at 37 °C = 100%
T1 construct: reactions containing 55 μg MDA-MB-468 lysate; endogenous in cells; host or cells: MDA-MB-468
Protocol: Trypsinized MDA-MB-468 cells were harvested by centrifugation at 200× g for 5 min and washed with PBS supplemented with EDTA-free PIC (Roche) and flash frozen for storage at −80 °C. Cells were lysed by resuspension in 60 μL PBS/PIC per 1 × 10^6 cells. Cells were lysed by three freeze-thaw cycles, where cells were frozen in an ethanol/dry ice bath for 3 min, immediately followed by incubation in a 37 °C water bath for 3 min. The insoluble fraction was removed by centrifugation at 20,000× g for 20 min at 4 °C. The supernatant containing the soluble lysate was removed and saved for subsequent steps.
After incubation, each reaction was transferred to a 1.5 mL tube and centrifuged at 20,000× g for 20 min at 4 °C to remove the insoluble proteins. After centrifugation, 18 μL of supernatant was carefully removed from each reaction, without disturbing any pelleted aggregates, and added to 4.5 μL of 5× SDS-PAGE loading buffer. 11 μL of each reaction was loaded onto a gel in duplicate, and proteins were detected by Western blot (as described below). Resulting band densities were fit to the Boltzmann equation to determine the melting temperature (Tm):(3) y=Bottom+Top−Bottom/1+e^Tm−x/Slope
To rescue the thermal degradation of DHFR by inhibitors, samples containing 10 μM inhibitor, 55 μg lysate, and 1% DMSO in a total volume of 28 μL in DHFR buffer were prepared in PCR tubes and incubated at room temperature for 20 min. Two DMSO-only controls were also prepared. Reactions containing inhibitors were then incubated at 45 °C for 3 min. One DMSO-only control was also heated at 45 °C for 3 min, and the other control was heated at 37 °C for 3 min. The soluble protein fraction was separated from the insoluble proteins by centrifugation, and proteins were separated by SDS-PAGE, as described above, and analyzed via Western blot, as described below. Each experiment was repeated 3 times.
Proteins were electrophoretically separated on a 10% gel, and proteins were transferred to a methanol-activated PVDF membrane using the Trans-Blot Turbo transfer system (Bio-Rad) for 7 min at 1.3 A and 25 V in Trans-Blot Turbo transfer buffer (Bio-Rad). Membranes were blocked with 5% skim milk w/v in TBS-T (20 mM Tris, 150 mM NaCl, 0.05% Tween-20) for 1 h at room temperature. […] The horseradish peroxidase (HRP)-linked anti-mouse IgG secondary antibody (NA931, Cytiva; 1:3000) was added for 1 h at room temperature in 5% skim milk w/v in TBS-T. Signal was detected by adding Immobilon Forte Western HRP Substrate (Millipore), and chemiluminescence was captured on a Sapphire Biomolecular Imager (Azure Biosystems). Band densities were determined using ImageJ (Fiji). The band intensity of DHFR was normalized to the thermostable loading control SOD1 [22].

[2] = tested on: MDA-MB-231 cells; test: LC/MS-based metabolite profiling; type: cell-based, Human; conditions: 24 h
Protocol: For characterization by mass spectrometry, MDA-MB-231 cells were seeded at a density of 3 × 10^5 cells per well in 6-well plates. […] DMSO only and DMSO + folinic acid controls were also performed. Per condition, biological quadruplicates of approximately one million cells were harvested, washed briefly with 1 mL of 0.9% NaCl (prepared in LC/MS-grade water Fisher Scientific W6500), and extracted in 500 μL prechilled extraction buffer (80% LC/MS-grade methanol, 20% 125 mM ammonium acetate, 12.5 mM sodium ascorbate prepared in LC/MS-grade water and supplemented with aminopterin (catalog no.: 16.330; Schircks Laboratories) and isotopically labeled internal standards (17 amino acids and reduced glutathione [Cambridge Isotope Laboratories; MSK- A2-1.2 and CNLM-6245-10])) using a cell scraper. After centrifugation for 10 min, 4 °C, at maximum speed on a benchtop centrifuge (Eppendorf), the cleared supernatant was transferred to a new tube and dried using a nitrogen dryer (Reacti-Vap™ Evaporator, Thermo Fisher Scientific, TS-18826) while on ice. Once the drying process was completed, samples were reconstituted in 50 µL QReSS water (Cambridge Isotope Laboratories, MSK-QRESS-KIT) by brief sonication in a 4 °C water bath. Extracted metabolites were spun for 3 min, 4 °C, at maximum speed on a bench-top centrifuge, and cleared supernatant was transferred to LC/MS microvials (National Scientific, C5000-45B). Three microliters of each sample were pooled and serially diluted 3- and 10-fold to be used as quality controls throughout the run of each batch. Unlabeled QReSS metabolites (Cambridge Isotope Laboratories, MSK-QReSS-US-KIT) and unlabeled amino acid mix standard (Cambridge Isotope Laboratories, MSK-A2-US-1.2) were also included in the run to ensure high-quality metabolomics results.
One microliter (equivalent to 2 × 10^4 cells) of the reconstituted sample was injected into a ZIC-pHILIC 150 × 2.1 mm (5 µm particle size) column (EMD Millipore) operated on a Vanquish™ Flex UHPLC Systems (Thermo Fisher Scientific, San Jose, CA, USA). Chromatographic separation was achieved using the following conditions: buffer A was acetonitrile; buffer B was 20 mM ammonium carbonate, 0.1% ammonium hydroxide. Gradient conditions were: linear gradient from 20% to 80% B; 20–20.5 min: from 80% to 20% B; 20.5–28 min: hold at 20% B. The column oven and autosampler tray were held at 25 °C and 4 °C, respectively.
Mass spectrometry data acquisition was performed using a QExactive benchtop orbitrap mass spectrometer equipped with an Ion Max source and a HESI II probe (Thermo Fisher Scientific, San Jose, CA, USA) and was performed in positive and negative ionization mode in a range of m/z = 70–1000, with the resolution set at 70,000, the AGC target at 1 × 10^6, and the maximum injection time (Max IT) at 20 msec. For nucleotide tSIM scans, the resolution was set at 70,000, the AGC target was 1 × 10^5, and the max IT was 100 msec.
Manual curation and integration of chromatographic peaks were performed with TraceFinder 4.1 (Thermo Fisher Scientific, Waltham, MA, USA) using a 5 ppm mass tolerance and referencing an in-house library of chemical standards. Data from TraceFinder were further consolidated and normalized with an in-house R script: (https://github.com/FrozenGas/KanarekLabTraceFinderRScripts/blob/main/MS_data_script_v2.4_20221018.R (accessed on 22 November 2022)). Briefly, this script performs normalization and quality control steps: (1) extracts and combines the peak areas from TraceFinder output .csvs; (2) calculates and normalizes to an averaged factor from all mean-centered chromatographic peak areas of isotopically labeled amino acids internal standards within each sample; (3) filters out low-quality metabolites based on user inputted cut-offs calculated from pool reinjections and pool dilutions; (4) calculates and normalizes for biological material amounts based on the total integrated peak area values of high-confidence metabolites. […]

[3] = tested on: STAT3 transcriptional activity in U3A STAT3 luciferase reporter cell line; test: STAT3 luciferase reporter assay; type: cell-based; conditions: 0.02–20 μM, OSM 10 ng/mL
Protocol: The STAT3-dependent luciferase reporter assay was performed as previously reported. One day prior to the assay, the U3A STAT3 luciferase reporter cell line was seeded in a 96-well plate at 8000 cells per well. Cells were then incubated with compounds at the indicated concentration, and each well was treated with either media control or stimulated with 10 ng/mL oncostatin M (OSM) and incubated for six hours at 37 °C. Luciferase activity was quantified using the Bright-Glo Luciferase Assay system (Promega) and a Luminoskan Ascent Luminometer (Labsystems). Collected luminescence readings were normalized to DMSO-treated controls. Stimulation with (+OSM) gave luminescence values around 2.5 times that of the unstimulated control (−OSM). Quadruplicates were averaged and plotted with error bars representing standard deviation. Each condition was performed in quadruplicate on two separate occasions (n = 2) with representative data shown. Statistical significance was determined using Ordinary one-way ANOVA with a Dunnett multiple comparison test.

[4] = target: T2, purified human DHFR (Homo sapiens, UniProt P00374); test: DHFR enzymatic inhibition assay (NADPH absorbance at 340 nm); type: biochemical; conditions: 200 nM DHFR, 137.5 μM DHF, 125 μM NADPH; n = 2; read-out: IC50
T2 construct: made in house; host or cells: E. coli BL21 (DE3) T1R pRARE2, pNIC-Bsa4 plasmid
T2 sequence (P00374 1-187): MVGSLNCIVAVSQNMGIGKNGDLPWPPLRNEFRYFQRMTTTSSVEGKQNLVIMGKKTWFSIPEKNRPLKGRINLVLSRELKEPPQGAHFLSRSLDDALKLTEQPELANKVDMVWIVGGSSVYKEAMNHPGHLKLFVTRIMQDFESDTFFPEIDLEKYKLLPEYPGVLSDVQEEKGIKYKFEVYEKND
Protocol: Working stocks of each inhibitor were created so that the final concentration of DMSO in each reaction was 2% in a final reaction volume of 100 μL. […] Reactions were prepared on ice in 384-well plates. […] Consumption of NADPH by measuring absorbance at 340 nm was used to monitor the progress of the reaction. Readings were taken every 5 min for 1 h at 37 °C using a Synergy MX microplate reader (BioTek).
Percent inhibition relative to the no-inhibitor control was determined using Equation (1). (1) % Inhibition=A340Inhibitor−A340DMSO Control/A340No DHFR−A340DMSO Control×100
Percent inhibition data were then fit to the four-parameter logistic model (Equation (2)) in GraphPad Prism 9.4.1 to determine half-maximal inhibitory concentrations (IC50):(2) y=Bottom+Top−Bottom/1+IC50/x^Hill slope where y represents the percent inhibition, x represents the concentration of inhibitor (μM), the bottom and top represent the bottom and top plateaus, and the Hill slope represents the slope factor. Each experiment contained duplicates of each sample, and each experiment was performed 2 times (n = 2). An ordinary one-way ANOVA was used to test for statistical significance between treatments.

[5] = tested on: MDA-MB-468 cells; test: Resazurin viability assay with or without folinic acid, MDA-MB-468; type: cell-based, Human; conditions: 72 h; for Relative Viability (%) – Inhibitor + FA Treatment: MDA-MB-468, 10 μM + 300 μg/mL folinic acid; for Relative Viability (%) – Inhibitor Alone: MDA-MB-468, 10 μM, relative to DMSO
Protocol: (§1) The incorporation and metabolism of resazurin to resorufin was used to monitor cell viability. MDA-MB-468, MCF7, and MDA-MB-231 cells were grown in 96-well plates with a total of 5000 cells per well in a total volume of 180 μL for 24 h, as described above. After 24 h of growth, cells were treated with increasing concentrations of compounds (0.0457–100 μM) for 72 h. A vehicle control was also performed. […] The volume of treatment added to each well was 20 μL. For folinic acid rescue experiments, 5000 cells were treated with 10 μM compound with or without 300 μg/mL folinic acid (Supelco). After 72 h of treatment, resazurin was added to a final concentration of 44 μM, and cells were incubated for an additional 4 h at 37 °C. The fluorescence of resorufin was monitored on a Synergy MX microplate reader (BioTek) using an excitation wavelength of 540 nm and an emission wavelength of 600 nm. Percent viability relative to the DMSO control was determined. Each treatment was performed in triplicate, and each individual experiment was repeated three times (n = 3).

[6] = tested on: MDA-MB-231 cells; test: Resazurin viability assay with or without folinic acid, MDA-MB-231; type: cell-based, Human; conditions: 72 h; for Relative Viability (%) – Inhibitor + FA Treatment: MDA-MB-231, 10 μM + 300 μg/mL folinic acid; for Relative Viability (%) – Inhibitor Alone: MDA-MB-231, 10 μM, relative to DMSO
Protocol: as §1

[7] = tested on: MCF-7 cells; test: Resazurin viability assay with or without folinic acid, MCF-7; type: cell-based, Human; conditions: 72 h; for Relative Viability (%) – Inhibitor + FA Treatment: MCF-7, 10 μM + 300 μg/mL folinic acid; for Relative Viability (%) – Inhibitor Alone: MCF-7, 10 μM, relative to DMSO; for Rescue of viability impairment by folinic acid: MCF-7, 10 μM ± 300 μg/mL FA
Protocol: as §1

IC50 [4] [µM] | SMILES | Normalized Band Density (%) of soluble DHFR [1] | Normalized Band Density (%) of soluble DHFR ([1]; listed as Methotrexate) [%] | Orotate levels with FA supplementation ([2]; 10 μM + 300 μg/mL FA) | AICAR levels ([2]; 10 μM, inhibitor alone) | Orotate levels ([2]; 10 μM, inhibitor alone) | UDP level ([2]; 10 μM, inhibitor alone versus DMSO) | Inhibition of STAT3-dependent luciferase activity [3] | Relative Viability (%) – Inhibitor + FA Treatment [5] [%] | Relative Viability (%) – Inhibitor Alone [5] [%] | Relative Viability (%) – Inhibitor + FA Treatment [6] [%] | Relative Viability (%) – Inhibitor Alone [6] [%] | Relative Viability (%) – Inhibitor + FA Treatment [7] [%] | Relative Viability (%) – Inhibitor Alone [7] [%] | Rescue of viability impairment by folinic acid [7] | Rescue of viability impairment by folinic acid ([5]; MDA-MB-468, 10 μM ± 300 μg/mL FA) | Rescue of viability impairment by folinic acid ([6]; MDA-MB-231, 10 μM ± 300 μg/mL FA)
– | CN(Cc1cnc2nc(N)nc(N)c2n1)c1ccc(C(=O)N[C@@H](CCC(=O)O)C(=O)O)cc1 [MTX, methotrexate] | greater than 100% | 123.37 ± 73.5 | returned orotate to vehicle control levels | failed to increase AICAR levels in a statistically significant manner | decreased or statistically insignificant changes in orotate levels | not upon treatment with MTX and 127159 alone | potent inhibition of luciferase activity | – | – | – | – | – | – | – | – | –
8.6 ± 2.7 | CCc1nc(N)nc(N)c1-c1ccc(Cl)c(Cl)c1 [compound 3062, etoprine] | 83.56 ± 52.1% | – | – | – | – | – | – | 81.08 ± 13.2 | 65.38 ± 1.3 | 65.52 ± 15.0 | 52.76 ± 12.1 | 100.10 ± 8.2 | 65.16 ± 9.0 | – | – | –
– | CC1(C)N=C(N)N=C(N)N1c1ccc(Cl)c(Cl)c1 [compound 3077] | – | – | – | – | – | – | – | – | – | – | – | – | – | small yet statistically significant rescue | – | –
– | CCS(=O)(=O)O.CN(C)C(=O)c1cccc(COc2ccc(N3C(N)=NC(N)=NC3(C)C)cc2Cl)c1 [compound 139105, triazinate] | 86.05 ± 21.9% | – | – | – | – | – | – | 81.38 ± 16.9 | 57.09 ± 8.0 | 65.85 ± 13.7 | 46.35 ± 9.0 | 82.83 ± 9.7 | 66.53 ± 8.1 | not rescued | statistically significant rescue | not rescued
